Measured values taken from PMC9697025, “Discovery of N-Containing (-)-Borneol Esters as Respiratory Syncytial Virus Fusion Inhibitors” (Pharmaceuticals, 2022).

Columns and labels:
[1] = test system: RSV A strain A2; assay: In vitro antiviral assay against RSV A strain A2 in HEp-2 cells (ELISA, virus titer); type: cell-based, respiratory syncytial virus; settings: for IC50: human respiratory syncytial virus, HEp-2, 50% decrease in virus replication, RSV A strain A2 in HEp-2 cells, mean ± SD; for SI: selectivity index, CC50/IC50 ratio, RSV A2 / HEp-2
[2] = MTT cytotoxicity assay with non-infected HEp2 cells; settings: human
[3] = test system: Vaccinia virus; settings: CC50/IC50VACV ref 16; cited from earlier work
[4] = test system: RSV; assay: Temperature shift assay (virus attachment at 4 °C vs post-binding); settings: unbound virus washed away, compound added before shift to 37 °C
[5] = test system: RSV A strain; settings: for effect on viral titer, time-of-addition: compound added at 1 h post infection; for inhibitory activity, time-of-addition: compound added at later time points (after 2 h post infection); for time of addition up to which antiviral activity was maintained: post infection
[6] = test system: rVSV-ΔG-MarV-GP; settings: CC50/IC50MarV-GP, HEK293T cells ref 12,13; cited from earlier work
[7] = test system: A/Puerto Rico/8/34 (H1N1) virus; design: method as in PMID 30108810; settings: CC50/IC50H1N1, A/Puerto Rico/8/34 (H1N1) ref 15; cited from earlier work
[8] = test system: rVSV-ΔG-EboV-GP; settings: CC50/IC50EboV-GP, HEK293T cells ref 12,13; cited from earlier work

Row | Compound | IC50 [1] [µM] | SI [1] | CC50 at 24 h [2] [µM] | other results
1 | CC1(C)[C@H]2CC[C@]1(C)[C@H](OC(=O)CCN1CCC(Cc3ccccc3)CC1)C2 [Compound 13b, (1S,2R,4S)-1,7,7-trimethylbicyclo [2.2.1]heptan-2-yl 3-(4-benzylpiperidin-1-yl)propanoate] | 14.9 ± 1 | 2 | 25.5 ± 11.4 | –
2 | CC1(C)[C@H]2CC[C@]1(C)[C@H](OC(=O)CCCN1CCOCC1)C2 [Compound 5c] | 5.8 ± 0.9 | 53 | 307 ± 24.1 | SIVACV [3]: ^d SIVACV = 23
3 | CC1(C)[C@H]2CC[C@]1(C)[C@H](OC(=O)CCCN1CCCCCC1)C2 [Compound 8c] | 34.2 ± 1.1 | 5 | 159 ± 12.4 | –
4 | CCN1CCN(CC(=O)O[C@@H]2C[C@@H]3CC[C@@]2(C)C3(C)C)CC1 [Compound 10a] | 57.7 ± 2.2 | 4 | 217 ± 18.9 | –
5 | CN(C)CCC(=O)O[C@@H]1C[C@@H]2CC[C@@]1(C)C2(C)C [Compound 3b] | 8.9 ± 2.4 | 111 | 983 ± 44.2 | anti-RSV activity, temperature shift conditions (B) [4]: antiviral activity was maintained; effect on viral titer, time-of-addition [5]: significant reduction in viral titer; inhibitory activity, time-of-addition [5]: lost their inhibitory activity; time of addition up to which antiviral activity was maintained [5]: up to 2 h
6 | CC1(C)[C@H]2CC[C@]1(C)[C@H](OC(=O)CCCN1CCC(Cc3ccccc3)CC1)C2 [Compound 13c, (1S,2R,4S)-1,7,7-trimethylbicyclo [2.2.1]heptan-2-yl 4-(4-benzylpiperidin-1-yl)butanoate] | 7.3 ± 0.6 | 5 | 40.2 ± 5.1 | –
7 | CCN1CCN(CCCC(=O)O[C@@H]2C[C@@H]3CC[C@@]2(C)C3(C)C)CC1 [Compound 10c] | 9.8 ± 2.5 | 21 | 208 ± 21.4 | –
8 | CCN1CCN(CCC(=O)OC2CC3CCC2(C)C3(C)C)CC1 (stereo not drawn) [II (n=2)] | – | – | – | SIMarV-GP [6]: ^a SIMarV-GP = 47; SIH1N1 [7]: ^c SIH1N1 = 12; SIEboV-GP [8]: ^b SIEboV-GP = 170
9 | CC1(C)[C@H]2CC[C@]1(C)[C@H](OC(=O)CN1CCN(c3ccccc3)CC1)C2 [Compound 14a, (1S,2R,4S)-1,7,7-Trimethylbicyclo [2.2.1]heptan-2-yl 2-(4-phenylpiperazin-1-yl)acetate] | 4.6 ± 1.1 | 6 | 26.4 ± 3.8 | –
10 | CN(C)CC(=O)O[C@@H]1C[C@@H]2CC[C@@]1(C)C2(C)C [Compound 3a] | 134 ± 19.5 | 4 | 497 ± 53.2 | –
11 | CC1CCN(CCC(=O)O[C@@H]2C[C@@H]3CC[C@@]2(C)C3(C)C)CC1 [Compound 7b] | 6.2 ± 2.1 | 26 | 159 ± 17.1 | –
12 | CC1(C)[C@H]2CC[C@]1(C)[C@H](OC(=O)CCN1CCN(Cc3ccccc3)CC1)C2 [Compound 11b] | 46.8 ± 7.2 | 1 | 49.4 ± 5.6 | –
13 | CC1(C)[C@H]2CC[C@]1(C)[C@H](OC(=O)CN1CCCCCC1)C2 [Compound 8a] | 61.3 ± 3.2 | 1 | 85.2 ± 5.6 | –
14 | CC1(C)[C@H]2CC[C@]1(C)[C@H](OC(=O)CCCN1CCCCC1)C2 [Compound 6c] | 39 ± 4.1 | 3 | 117 ± 11.1 | –
15 | CC1(C)[C@H]2CC[C@]1(C)[C@H](OC(=O)CN1CCSCC1)C2 [Compound 12a, (1S,2R,4S)-1,7,7-Trimethylbicyclo [2.2.1]heptan-2-yl 2-thiomorpholinoacetate] | 69.6 ± 16.2 | 2 | 126 ± 10.5 | –
16 | CC1(C)[C@H]2CC[C@]1(C)[C@H](OC(=O)CN1CCCCC1)C2 [Compound 6a] | 41.9 ± 3.1 | 3 | 129 ± 9.8 | –
17 | CC1(C)[C@H]2CC[C@]1(C)[C@H](OC(=O)CCN1CCN(c3ccccc3F)CC1)C2 [Compound 15b, (1S,2R,4S)-1,7,7-trimethylbicyclo [2.2.1]heptan-2-yl 3-(4-(2-fluorophenyl)piperazin-1-yl)propanoate] | 8.2 ± 0.8 | 2 | 20.1 ± 12.1 | –
18 | CCN1CCN(CCC(=O)O[C@@H]2C[C@@H]3CC[C@@]2(C)C3(C)C)CC1 [Compound 10b] | 5.9 ± 1.4 | 20 | 117 ± 11.7 | –
19 | CCN(CC)CCC(=O)O[C@@H]1C[C@@H]2CC[C@@]1(C)C2(C)C [Compound 4b] | 99.5 ± 8.7 | 4 | 391 ± 23.1 | –
20 | CN1CCN(CCC(=O)O[C@@H]2C[C@@H]3CC[C@@]2(C)C3(C)C)CC1 [Compound 9b] | 17.2 ± 1.9 | 10 | 169 ± 12.1 | –

Row | Compound | IC50 [1] [µM] | SI [1] | CC50 at 24 h [2] [µM] | other results
21 | CC1(C)[C@H]2CC[C@]1(C)[C@H](OC(=O)CN1CCN(Cc3ccccc3)CC1)C2 [Compound 11a] | 21.6 ± 2.6 | 2 | 51.3 ± 4.9 | –
22 | CN1CCN(CC(=O)O[C@@H]2C[C@@H]3CC[C@@]2(C)C3(C)C)CC1 [Compound 9a] | 13.9 ± 2.4 | 19 | 267 ± 16.5 | –
23 | CC1(C)[C@H]2CC[C@]1(C)[C@H](OC(=O)CCCN1CCN(c3ccccc3)CC1)C2 [Compound 14c, (1S,2R,4S)-1,7,7-trimethylbicyclo [2.2.1]heptan-2-yl 4-(4-phenylpiperazin-1-yl)butanoate] | 12 ± 2 | 2 | 23.9 ± 8.7 | –
24 | CC1CCN(CC(=O)O[C@@H]2C[C@@H]3CC[C@@]2(C)C3(C)C)CC1 [Compound 7a] | 109 ± 10.7 | 4 | 399 ± 4.8 | –
25 | CC1(C)[C@H]2CC[C@]1(C)[C@H](OC(=O)CCN1CCSCC1)C2 [Compound 12b, (1S,2R,4S)-1,7,7-trimethylbicyclo [2.2.1]heptan-2-yl 3-thiomorpholinopropanoate] | 96.3 ± 3.5 | 1 | 86 ± 7.4 | –
26 | CC1(C)[C@H]2CC[C@]1(C)[C@H](OC(=O)CCCN1CCN(Cc3ccccc3)CC1)C2 [Compound 11c] | 25.1 ± 3.5 | 3 | 82.8 ± 7.9 | –
27 | CC1(C)[C@H]2CC[C@]1(C)[C@H](OC(=O)CCN1CCCCC1)C2 [Compound 6b] | 14.6 ± 1.2 | 22 | 326 ± 45.6 | anti-RSV activity, temperature shift conditions (B) [4]: antiviral activity was maintained; effect on viral titer, time-of-addition [5]: significant reduction in viral titer; inhibitory activity, time-of-addition [5]: lost their inhibitory activity; time of addition up to which antiviral activity was maintained [5]: up to 2 h
28 | CN(C)CCCC(=O)O[C@@H]1C[C@@H]2CC[C@@]1(C)C2(C)C [Compound 3c] | 23.9 ± 3.7 | 10 | 228 ± 23.5 | –
29 | CC1CCN(CCCC(=O)O[C@@H]2C[C@@H]3CC[C@@]2(C)C3(C)C)CC1 [Compound 7c] | 19.9 ± 2.3 | 3 | 59.1 ± 4.8 | –
30 | CC1(C)[C@H]2CC[C@]1(C)[C@H](OC(=O)CN1CCN(c3ccccc3F)CC1)C2 [Compound 15a, (1S,2R,4S)-1,7,7-trimethylbicyclo [2.2.1]heptan-2-yl 2-(4-(2-fluorophenyl)piperazin-1-yl)acetate] | 2.7 ± 0.7 | 10 | 27.5 ± 3.8 | –
31 | CN1CCN(CC(=O)OC2CC3CCC2(C)C3(C)C)CC1 (stereo not drawn) [I (n=1)] | – | – | – | SIMarV-GP [6]: ^a SIMarV-GP = 14; SIH1N1 [7]: ^c SIH1N1 = 23; SIEboV-GP [8]: ^b SIEboV-GP = 46
32 | CN1CCN(CCCC(=O)O[C@@H]2C[C@@H]3CC[C@@]2(C)C3(C)C)CC1 [Compound 9c] | 5.1 ± 0.8 | 39 | 198 ± 13.6 | –
33 | CCN(CC)CCCC(=O)O[C@@H]1C[C@@H]2CC[C@@]1(C)C2(C)C [Compound 4c] | 30.5 ± 2.9 | 5 | 152 ± 12.1 | –
34 | CC1(C)[C@H]2CC[C@]1(C)[C@H](OC(=O)CCN1CCCCCC1)C2 [Compound 8b] | 97.6 ± 8.9 | 3 | 345 ± 24.6 | –
35 | CC1(C)[C@H]2CC[C@]1(C)[C@H](OC(=O)CCCN1CCSCC1)C2 [Compound 12c, (1S,2R,4S)-1,7,7-trimethylbicyclo [2.2.1]heptan-2-yl 4-thiomorpholinobutanoate] | 75.3 ± 7.9 | 1 | 56.5 ± 3.8 | –
36 | CCN1CCN(CC(=O)OC2CC3CCC2(C)C3(C)C)CC1 (stereo not drawn) [II (n=1)] | – | – | – | SIMarV-GP [6]: ^a SIMarV-GP = 29; SIH1N1 [7]: ^c SIH1N1 = 16; SIEboV-GP [8]: ^b SIEboV-GP = 80
37 | CC1(C)[C@H]2CC[C@]1(C)[C@H](OC(=O)CCCN1CCN(c3ccccc3F)CC1)C2 [Compound 15c, (1S,2R,4S)-1,7,7-trimethylbicyclo [2.2.1]heptan-2-yl 4-(4-(2-fluorophenyl)piperazin-1-yl)butanoate] | 14.7 ± 2.1 | 2 | 27.8 ± 7.4 | –
38 | CN1CCN(CCC(=O)OC2CC3CCC2(C)C3(C)C)CC1 (stereo not drawn) [I (n=2)] | – | – | – | SIMarV-GP [6]: ^a SIMarV-GP = 20; SIH1N1 [7]: ^c SIH1N1 = 25; SIEboV-GP [8]: ^b SIEboV-GP = 870
39 | CC1(C)[C@H]2CC[C@]1(C)[C@H](OC(=O)CN1CCC(Cc3ccccc3)CC1)C2 [Compound 13a, (1S,2R,4S)-1,7,7-trimethylbicyclo [2.2.1]heptan-2-yl 2-(4-benzylpiperidin-1-yl)acetate] | 21.6 ± 1.8 | 5 | 116 ± 13.4 | –
40 | CCN(CC)CC(=O)O[C@@H]1C[C@@H]2CC[C@@]1(C)C2(C)C [Compound 4a] | 355 ± 51.1 | 2 | 669 ± 56.4 | –
